Results on two compounds are retold here after patent US7655225B2, “Methods of expanding stem and progenitor cells and expanded cell populations obtained thereby” (Gamida Cell, Ltd., priority 2002, dated 2010).

For assay [1], the system named is CD34+ cells. The assay can be described thus: Self-renewal potential: colony-forming cells (CFU) from CD34+ cultures. It counts as cell-based, human. The note with it: for CFUc: eight-week cultures, FIG. 2d, control 0; for numbers of CD34+ Lin− colony-forming cells, fold higher than untreated control: four weeks, with IL-3, FIG. 6d; for number of colony-forming cells of CD34+ vs untreated control: 5 and 7 weeks incubation, different concentrations, TPO, FLT-3, IL-6, IL-3, FIGS. 15a-c. An excerpt:
Ex vivo expansion of progenitor cells: Enriched CD34^+ cell fractions were cultures in 24-well Costar Cell Culture Clusters (Corning Inc., Corning, N.Y.) or in Culture Bags (American Fluoroseal Corp.) with alpha minimal essential medium supplemented with 10% fetal bovine serum (FBS, Biological Industries), at about 1-3×10^4 cells/ml medium. The media were further supplemented with the following human recombinant cytokines (all obtained from Perpo Tech, Inc., Rocky Hill, N.J.): Thrombopoietin (TPO), 50 ng/ml; interleukin 6 (IL-6), 50 ng/ml; FLT-3 ligand, 50 ng/ml; and IL-3, 20 ng/ml. The cultures were incubated at 37° C. in an atmosphere of 5% CO2 in air with extra humidity. At weekly intervals cell cultures were semi-depopulated and supplemented with fresh medium containing the cytokines. Following different incubation periods, the cells were harvested, stained with trypan blue and enumerated. The total cell counts, numbers of CD34^+ cells and subsets thereof, and the number of colony-forming cells (CFU) are presented herein as cumulative numbers, with the assumption that the cultures had not been passaged, namely, the numbers of cells per ml were multiplied by the number of passages performed. Self-renewal potential evaluations: The self-renewal potential of stem cells was determined in vitro by long-term colony formation. Cells were washed and seeded in a semi-solid methylcellulose medium supplemented with 2 IU/ml erythropoietin ([…] Int., Switzerland), stem cell factor and IL-3, both at 20 ng/ml (Perpo Tech), and G-CSF and GM-CSF, both at 10 ng/ml (Perpo Tech). The resulting colonies were scored after two weeks of incubation at 37° C. in a humidified atmosphere of 5% CO2 in air. Colonies were classified as blast, mixed, erythroid, myeloid, and megakaryocytic, according to their cellular composition.

Assay [2] relates to CD34+ cells. Description: Cellular copper content by atomic absorption. It counts as cell-based, human. The note with it: 2 days incubation, relative to untreated control. As for the experimental part: Cell cultures: Cultures of enriched CD34^+ cell fraction were generated, maintained and analyzed as described in Example 1 above.
Copper Determination: Cells were harvested by centrifugation at 1000 g for 5 minutes. The cell pellet was washed three times in PBS. Aliquots containing 2×10^6 cells were then transferred into a metal-free Eppendorf tube and pelleted by centrifugation at 1000 g. The cell pellet was re-suspended in 0.03 M ultra-pure nitric acid to give a concentration of 1×10^7 cells/ml. The cells were sonicated and then analyzed in duplicate by a Perkin Elmer graphite furnace atomic absorption spectrophotometer at a wavelength of 324.7 nm and a 0.7 slit width. The following times and temperatures were used: drying at 95° C. for 45 seconds with a 15-s ramp; charring at […] for 30 seconds with a 10-s ramp, and atomization at […] for 10 seconds. The peak area was integrated for 10 seconds. The samples were analyzed against copper standard solution prepared from a commercial stock solution that was diluted with 0.03 M ultra pure nitric acid.
Effect of TEPA-Cu chelate and TEPA chelator on the cellular copper content: Purified CD34^+ cell were seeded in liquid culture in the presence of early cytokines and treated either with TEPA-Cu chelate or with TEPA chelator. After 2 days incubation, cells were separated from culture media and analyzed for cellular copper content. The results are presented in Table 1 below and indicate that cultured cells treated with TEPA-Cu chelate, at different concentrations, developed progressively higher cellular copper content. In contrast, cultured cells treated with TEPA chelator, at different concentrations, developed progressively lower cellular copper contents.

Regarding `NCCNCCNCCNCCN.[Cl-].[Cl-].[Cu+2]` [TEPA-Cu chelate, tetraethylenepentamine-copper chelate], the CFUc in the assay with CD34+ cells [1] (5 μM) is recorded as 0 CFUc; in the assay with CD34+ cells [1] (10 μM) it was 1 CFUc; in the assay on CD34+ cells [1] (15 μM), 30 CFUc; in the assay on CD34+ cells [1] (20 μM), 120 CFUc; in the assay with CD34+ cells [1] (40 μM), 400 CFUc. Besides, the entries for the “numbers of CD34+ Lin− colony-forming cells, fold higher than untreated control” value in the assay with CD34+ cells [1] (20 μM), in the assay on CD34+ cells [1] (40 μM) and in the assay with CD34+ cells [1] (50 μM) were 7 fold, 9 fold and 7.5 fold, respectively. The “effectiveness of higher vs lower concentrations on colony-forming cells” value in the assay on CD34+ cells [1] (100 μM vs 10 and 50 μM, 8 week-old cultures, FIG. 1) was “substantially more effective”. Further, the “number of colony-forming cells of CD34+ vs untreated control” value with CD34+ cells [1] is “substantially increased”. Also, the “colony-forming cells of CD34+ vs cultures treated only with cytokines” value with CD34+ cells [1] (8 week-old cultures, FIG. 1) is recorded as “substantially more colony-forming cells”. In addition, the “numbers of CFUc vs non-treated control (cytokines only)” value in the assay on CD34+ cells [1] (longer incubation (5, 6, 8 weeks), chelate supplemented first three weeks, FIGS. 2b-d) is recorded as “substantially higher”. Moreover, the “Relative cellular-copper content (%)” value is 178% in the assay with CD34+ cells [2] (10 μM), 235% with CD34+ cells [2] (30 μM) and 290% with CD34+ cells [2] (60 μM).
On to `NCCNCCNCCNCCN` [TEPA chelator, tetraethylenepentamine], for which the “number of colony-forming cells of CD34+ vs untreated control” value in the assay with CD34+ cells [1] is listed as “substantially increased”. Further, the “Relative cellular-copper content (%)” value turned out to be 80% in the assay with CD34+ cells [2] (5 μM), 55% in the assay on CD34+ cells [2] (10 μM) and 42% in the assay with CD34+ cells [2] (20 μM).
